The target in this experiment is soybean 15-lipoxygenase (SLO) (Glycine max, UniProt P08170). Kind of experiment: SLO screening assay (spectrophotometric MBTH-DMAB peroxide formation method, 598 nm). In kind it is biochemical. The conditions noted are these: pH = 8.3 versus pH = 7.0. As to the method:
Linoleic acid and two assay solutions (A and B) were prepared in advance. Solution A was 50 mM DMAB in a l00 mM phosphate buffer (pH 7.0). Solution B was a mixture of l0 mM MBTH (3 mL), hemoglobin (5 mg/mL, 3 mL) in 50 mM phosphate buffer at pH 5.0 (25 mL). A linoleic acid solution was prepared by mixing 5 mg of linoleic acid with 0.5 mL ethanol and then diluting with KOH 100 mM to a final volume of 5 mL. […] A control test was done with the same volume of ethanol. After the pre-incubation, linoleic acid solution (50 µL) was added to start the peroxidation reaction, and, 7 min later, solution A (270 µL) and then solution B (130 µL) was added to start the color formation. 5 min later, 200 µL of a 2% SDS solution was added to terminate the reaction. The absorbance at 598 nm was compared with control test. The IC50 results are outlined in Table 1.
It is interesting to note that the aforementioned amino acids with the exception of Val769 and Phe576 are conserved ([18], [19]). […] The inhibitory activity of compounds 1a-f, 2a-f towards SLO enzyme was determined by measuring the amount of peroxide formation. In this method, with the help of a spectrophotometer and by using a mixture of MBTH (3-methyl-2-benzothiazolonhydrazone) and DMAB (3-dimethylaminobenzoic acid) indicators in the presence of hemoglobin at the wavelength of 598 nm, the peroxide concentration was determined ([16]).

Chain of soybean 15-lipoxygenase (SLO) (P08170 whole entry): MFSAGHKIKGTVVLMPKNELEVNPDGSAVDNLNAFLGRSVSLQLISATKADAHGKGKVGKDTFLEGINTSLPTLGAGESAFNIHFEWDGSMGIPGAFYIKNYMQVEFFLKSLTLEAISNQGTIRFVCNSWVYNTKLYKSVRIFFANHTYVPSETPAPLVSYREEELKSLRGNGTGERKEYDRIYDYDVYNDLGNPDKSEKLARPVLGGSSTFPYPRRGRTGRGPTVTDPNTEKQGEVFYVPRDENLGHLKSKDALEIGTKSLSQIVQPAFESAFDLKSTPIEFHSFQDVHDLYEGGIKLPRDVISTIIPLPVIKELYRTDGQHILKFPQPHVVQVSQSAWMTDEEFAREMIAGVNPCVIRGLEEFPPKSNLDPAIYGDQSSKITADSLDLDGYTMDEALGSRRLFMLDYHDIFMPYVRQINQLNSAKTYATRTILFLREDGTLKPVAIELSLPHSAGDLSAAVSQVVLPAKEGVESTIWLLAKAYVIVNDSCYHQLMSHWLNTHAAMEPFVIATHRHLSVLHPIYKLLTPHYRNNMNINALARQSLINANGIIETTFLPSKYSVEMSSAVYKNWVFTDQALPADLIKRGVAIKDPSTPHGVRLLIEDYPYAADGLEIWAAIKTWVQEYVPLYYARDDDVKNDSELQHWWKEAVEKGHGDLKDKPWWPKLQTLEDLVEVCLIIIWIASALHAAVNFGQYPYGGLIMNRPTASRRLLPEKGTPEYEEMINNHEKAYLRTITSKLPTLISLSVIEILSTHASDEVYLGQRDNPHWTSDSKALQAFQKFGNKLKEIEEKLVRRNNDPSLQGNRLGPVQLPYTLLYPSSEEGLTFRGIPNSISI

Take `CC1CCN(c2ncc3c(n2)Sc2ccccc2N3)CC1` [1c]: the “IC50 at higher pH” value is reported as “nearly unchanged”.
As to `Cc1nc(N2CCC(C)CC2)nc2c1Nc1ccccc1S2` [2c], the “IC50 at higher pH” value is “nearly unchanged”.

Source of the values: PMC3758034, “New Insight into the SAR of Pyrimido [4,5-b][1,4] Benzothiazines as 15-lipoxygenase Inhibitors” (Iranian Journal of Basic Medical Sciences, 2013).
